Data: US9234018B2, “Compositions and methods for the treatment of VprBP-related cancers” (University of Southern California, priority 2013, dated 2016)

Experiments:
[1] = target: CDK7 (Homo sapiens, UniProt P50613); assay: Kinase selectivity panel; type: biochemical
[2] = target: CHK1 (Homo sapiens, UniProt O14757); assay: Kinase selectivity panel; type: biochemical
[3] = target: AURKA (Homo sapiens, UniProt O14965); assay: Kinase selectivity panel; type: biochemical
[4] = tested on: H2AT120p in DU145 cells; assay: Cellular H2AT120p by western blotting and immunostaining; type: cell-based, human
Experimental: To this end, Applicants' inhouse small-molecule library of 5,000 compounds was screened. […] To evaluate their cellular effects, DU145 cells were treated with the compounds in the concentration range of […] for 24 hr. […] Thus, although Applicants cannot exclude the possibility that other kinases that were not included in the selectivity screen might be affected, B32B3 can be defined as a highly specific VprBP inhibitor at present.
The levels of VprBP and H2AT120p in tumors tissues were determined in FDA human tumor organ tissue microarray, which includes 16 types of organ cancer with matched or unmatched adjacent normal tissue (US Biomax, Inc). The formalin-fixed, paraffin-embedded sections were blocked by treating with blocking reagent (50 mM Tris-HCl, pH 7.5, 150 mM NaCl, 0.3% Triton X-100, and 5% normal goat serum) for 30 min at room temperature and incubated with VprBP and H2AT120p antibodies at 4° C. overnight. Immunodetection was performed using ABC reagent (Vectorstain). DAB (Vector Lab) was used for color development and hematoxylin (Sigma) was used for counterstaining. The intensity and distribution patterns of staining were evaluated by semiquantitative immunohistochemical assessment. The intensity of staining was graded from − to +++ (−, no staining; +, weak staining; ++, moderate staining; and +++, strong staining) The distribution of staining was classified from 0 to 3 (0, 0-20%; 1, 21-50%; 2, 51-80%; 3, 81-100%). For immunofluorescence of DU145 cells, cells were treated with DMSO or B32B3 (0.5 μM) for 24 h and fixed with 4% paraformaldehyde for 15 min. The corresponding samples were permeabilized with 0.3% Triton X-100 for 15 min and immunostained with H2AT120p antibody.

[5] = target: CSNK1D (Homo sapiens, UniProt P48730); assay: Kinase selectivity panel; type: biochemical
Sequence of CSNK1D (P48730 whole entry): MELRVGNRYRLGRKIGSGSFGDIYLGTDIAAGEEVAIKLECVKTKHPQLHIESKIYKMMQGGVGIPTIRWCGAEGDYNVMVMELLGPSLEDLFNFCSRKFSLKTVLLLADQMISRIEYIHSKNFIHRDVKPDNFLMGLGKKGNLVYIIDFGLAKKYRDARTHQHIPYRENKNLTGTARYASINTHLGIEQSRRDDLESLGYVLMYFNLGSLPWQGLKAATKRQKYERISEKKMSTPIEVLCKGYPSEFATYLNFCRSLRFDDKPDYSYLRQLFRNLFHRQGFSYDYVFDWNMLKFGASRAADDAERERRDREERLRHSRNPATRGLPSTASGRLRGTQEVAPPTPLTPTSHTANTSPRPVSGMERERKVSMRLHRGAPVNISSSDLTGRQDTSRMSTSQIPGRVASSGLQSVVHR

[6] = target: DNAPK (Homo sapiens, UniProt P78527); assay: Kinase selectivity panel; type: biochemical
[7] = target: VRK2 (Homo sapiens, UniProt Q86Y07); assay: Kinase selectivity panel; type: biochemical
Sequence of VRK2 (Q86Y07 whole entry): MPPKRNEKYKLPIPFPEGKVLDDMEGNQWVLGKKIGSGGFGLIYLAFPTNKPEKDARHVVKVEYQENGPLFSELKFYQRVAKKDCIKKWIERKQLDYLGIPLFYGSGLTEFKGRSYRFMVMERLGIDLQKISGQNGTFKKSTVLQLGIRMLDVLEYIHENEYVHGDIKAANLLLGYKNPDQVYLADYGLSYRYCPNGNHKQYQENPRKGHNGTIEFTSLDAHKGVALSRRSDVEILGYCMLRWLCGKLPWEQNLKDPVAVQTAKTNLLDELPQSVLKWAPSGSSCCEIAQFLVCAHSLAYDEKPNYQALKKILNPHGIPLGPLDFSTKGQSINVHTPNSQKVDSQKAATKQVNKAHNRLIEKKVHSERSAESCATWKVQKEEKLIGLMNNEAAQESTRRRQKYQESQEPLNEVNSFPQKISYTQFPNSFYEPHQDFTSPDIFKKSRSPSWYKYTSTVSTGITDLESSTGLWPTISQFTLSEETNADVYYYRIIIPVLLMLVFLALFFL

[8] = target: HCK (Homo sapiens, UniProt P08631); assay: Kinase selectivity panel; type: biochemical
Sequence of HCK (P08631 whole entry): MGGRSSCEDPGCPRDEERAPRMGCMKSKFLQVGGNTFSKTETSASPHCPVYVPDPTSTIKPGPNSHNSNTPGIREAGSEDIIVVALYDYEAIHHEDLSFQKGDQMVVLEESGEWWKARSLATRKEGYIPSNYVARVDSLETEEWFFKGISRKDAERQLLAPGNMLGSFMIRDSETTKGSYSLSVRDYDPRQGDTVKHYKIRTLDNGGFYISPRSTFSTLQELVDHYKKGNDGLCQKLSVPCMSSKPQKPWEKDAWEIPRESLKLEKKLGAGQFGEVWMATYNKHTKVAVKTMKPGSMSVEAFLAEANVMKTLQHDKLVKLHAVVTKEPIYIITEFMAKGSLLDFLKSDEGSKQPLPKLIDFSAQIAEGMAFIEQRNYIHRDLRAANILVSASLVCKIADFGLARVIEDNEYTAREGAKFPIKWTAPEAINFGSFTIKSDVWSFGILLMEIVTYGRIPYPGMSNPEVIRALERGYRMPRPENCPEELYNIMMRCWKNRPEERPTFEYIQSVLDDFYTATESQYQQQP

[9] = target: RSK3 (Homo sapiens, UniProt Q15349); assay: Kinase selectivity panel; type: biochemical
Sequence of RSK3 (Q15349 whole entry): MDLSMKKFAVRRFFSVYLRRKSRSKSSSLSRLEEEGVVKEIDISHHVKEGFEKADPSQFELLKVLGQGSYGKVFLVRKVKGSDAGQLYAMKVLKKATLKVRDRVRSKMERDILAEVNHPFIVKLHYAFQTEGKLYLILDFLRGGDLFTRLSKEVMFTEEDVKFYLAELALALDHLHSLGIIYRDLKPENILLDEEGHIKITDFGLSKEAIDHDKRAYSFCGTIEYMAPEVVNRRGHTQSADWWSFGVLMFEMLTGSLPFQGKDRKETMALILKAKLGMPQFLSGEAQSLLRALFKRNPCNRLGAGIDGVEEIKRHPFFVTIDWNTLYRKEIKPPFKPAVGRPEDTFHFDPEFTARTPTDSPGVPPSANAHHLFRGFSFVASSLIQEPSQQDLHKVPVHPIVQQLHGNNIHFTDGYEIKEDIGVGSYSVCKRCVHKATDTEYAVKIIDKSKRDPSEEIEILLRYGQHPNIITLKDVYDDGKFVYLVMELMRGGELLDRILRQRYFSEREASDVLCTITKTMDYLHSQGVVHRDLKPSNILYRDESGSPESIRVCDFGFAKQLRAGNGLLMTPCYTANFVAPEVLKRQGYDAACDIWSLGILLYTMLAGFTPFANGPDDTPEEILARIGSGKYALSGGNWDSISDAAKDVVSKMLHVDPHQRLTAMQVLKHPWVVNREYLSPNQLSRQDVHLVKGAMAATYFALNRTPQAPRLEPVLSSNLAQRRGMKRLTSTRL

[10] = tested on: MLC cells; assay: Cell viability by MTT assay in normal cells; type: cell-based; conditions: concentrations up to 5 mM, 24 h; cells lacking VprBP-mediated H2AT120p
Experimental: FIGS. 8A-8I show characterization of B32B3 as a small-molecule VprBP kinase inhibitor, related to FIG. 4. (FIG. 8A) DU145 cells were infected with mock lentiviruse, VprBP-expressing shRNA lentivirus or Flag-VprBP-expressing lentivirus, and treated with the indicated concentrations of B32B3 for 24 h. Changes in H2AT120p as the results of B32B3 treatment were determined by the quantitative estimates of Western band intensity. Results represent the means±S.D. of three independent experiments. (FIG. 8B) DU145 cells were treated with the indicated concentrations of B32B3 and B20H6 for 72 h. Cell viability was measured by the MTT assay and was normalized to cells not exposed to the compounds. Data represent the means±S.D. of three independent experiments. […] (FIG. 8D) MLC cells were treated with B32B3 at the indicated doses for 24 h, and cell viability was assessed by MTT assay. […] (FIG. 8E) VprBP-mediated H2AT120p was analyzed in the presence of increasing concentrations of ATP and B32B3. (FIG. 8F) Body weights of vehicle or B32B3-treated mice were monitored during the treatment period. […] The stability of B32B3 in plasma was determined by LC-MS/MS at the indicated time points. […] Blood samples were collected at the indicated time points, and the concentration of B32B3 in plasma was analyzed by HPLC coupled mass spectrophotometry. […]

Sequence of CDK7 (P50613 whole entry): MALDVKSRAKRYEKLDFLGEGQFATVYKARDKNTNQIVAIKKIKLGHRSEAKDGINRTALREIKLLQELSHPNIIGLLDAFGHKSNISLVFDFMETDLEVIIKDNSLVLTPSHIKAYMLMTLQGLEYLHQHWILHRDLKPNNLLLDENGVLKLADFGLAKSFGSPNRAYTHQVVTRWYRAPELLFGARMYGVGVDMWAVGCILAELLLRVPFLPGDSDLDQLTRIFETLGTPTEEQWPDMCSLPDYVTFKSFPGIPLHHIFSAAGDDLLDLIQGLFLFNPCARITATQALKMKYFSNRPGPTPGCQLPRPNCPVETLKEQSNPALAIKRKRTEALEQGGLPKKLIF
Sequence of CDK7 (P51946 whole entry partner): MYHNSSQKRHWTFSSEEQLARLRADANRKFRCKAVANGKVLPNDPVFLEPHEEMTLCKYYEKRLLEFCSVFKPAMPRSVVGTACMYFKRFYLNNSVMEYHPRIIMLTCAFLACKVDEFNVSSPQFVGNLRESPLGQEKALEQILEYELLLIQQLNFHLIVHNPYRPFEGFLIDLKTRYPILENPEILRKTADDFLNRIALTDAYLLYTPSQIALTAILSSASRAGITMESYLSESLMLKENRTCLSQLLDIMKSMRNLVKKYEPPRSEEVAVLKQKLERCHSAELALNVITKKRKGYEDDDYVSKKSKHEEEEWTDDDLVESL
Sequence of CDK7 (P51948 whole entry partner): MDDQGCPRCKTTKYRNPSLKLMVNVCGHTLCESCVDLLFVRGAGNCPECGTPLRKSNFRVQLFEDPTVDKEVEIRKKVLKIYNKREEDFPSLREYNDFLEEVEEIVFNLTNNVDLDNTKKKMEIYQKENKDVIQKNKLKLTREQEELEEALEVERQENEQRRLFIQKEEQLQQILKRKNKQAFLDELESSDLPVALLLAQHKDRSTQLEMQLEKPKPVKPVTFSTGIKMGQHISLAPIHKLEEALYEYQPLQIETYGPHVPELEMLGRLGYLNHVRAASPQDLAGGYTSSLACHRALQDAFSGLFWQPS
Sequence of AURKA (O14965 whole entry): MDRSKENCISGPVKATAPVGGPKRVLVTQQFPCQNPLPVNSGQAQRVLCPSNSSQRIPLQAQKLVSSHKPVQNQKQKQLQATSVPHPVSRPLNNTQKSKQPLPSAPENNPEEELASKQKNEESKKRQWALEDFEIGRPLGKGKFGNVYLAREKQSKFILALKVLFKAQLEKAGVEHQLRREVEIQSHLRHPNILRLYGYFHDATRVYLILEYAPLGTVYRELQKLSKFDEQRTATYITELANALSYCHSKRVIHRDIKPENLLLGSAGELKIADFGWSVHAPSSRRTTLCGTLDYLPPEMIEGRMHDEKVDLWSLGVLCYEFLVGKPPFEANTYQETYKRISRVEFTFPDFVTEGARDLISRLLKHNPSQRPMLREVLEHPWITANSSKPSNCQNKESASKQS
Sequence of CHK1 (O14757 whole entry): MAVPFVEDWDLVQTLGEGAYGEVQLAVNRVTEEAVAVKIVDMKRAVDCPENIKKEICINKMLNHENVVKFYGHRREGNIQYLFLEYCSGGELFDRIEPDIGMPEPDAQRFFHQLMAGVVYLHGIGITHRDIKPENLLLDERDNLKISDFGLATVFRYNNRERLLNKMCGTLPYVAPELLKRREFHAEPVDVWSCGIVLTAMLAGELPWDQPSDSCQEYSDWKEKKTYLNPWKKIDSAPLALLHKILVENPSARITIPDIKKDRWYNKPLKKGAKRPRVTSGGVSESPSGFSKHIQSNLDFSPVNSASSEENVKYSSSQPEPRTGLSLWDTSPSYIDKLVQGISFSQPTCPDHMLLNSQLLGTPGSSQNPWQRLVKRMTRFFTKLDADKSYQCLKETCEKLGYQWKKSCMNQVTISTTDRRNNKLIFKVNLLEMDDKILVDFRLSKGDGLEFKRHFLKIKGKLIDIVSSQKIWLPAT

Compound `c1ccc2c(CNNc3ncnc4sc5c(c34)CCCC5)c[nH]c2c1` [B32B3] has an IC50 [1] of over 10 µM, an IC50 [2] of over 10 µM and an IC50 [3] of over 10 µM. For the same compound, the “Potency in cells overexpressing VprBP” value ([4]; DU145 cells overexpressing VprBP, 24 h) was “considerably less potent”, the IC50 ([4]; Homo sapiens, DU-145, DU145 cells, 24 hr, 0-5 mM, read-out: IC50 for inhibition of H2AT120p) was 0.5 µM and the “Decrease in IC50 (H2AT120p) upon knockdown of VprBP” value ([4]; VprBP-knockdown DU145 cells, 24 h) was “circa 2 fold”. The IC50 [5] was over 10 µM, the IC50 [6] was over 10 µM and the IC50 [7] was over 10 µM. The IC50 [8] was over 10 µM, the IC50 [9] was over 10 µM and the “Effect on proliferation of MLC cells” value [10] was “minimally antagonized”.
